Test results published in patent US20100267561A1, “HERBICIDAL PYRIDAZINONE DERIVATIVES” (priority 2007, published 2010).
Read-outs that look alike come from different tables or passages of the source.

Columns and labels:
Assay in all cases: Test B pre-/postemergence plant response
Format in all cases: in vivo
soybean (Glycine max) = conditions: Preemergence; for Soybean plant response rating: scale 0 to 100
Method in brief: (§1)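 Seeds were sown and sprayed preemergence, while plants at 2 to 18 cm (1- to 4-leaf stage) got postemergence sprays. Compounds were formulated in a non-phytotoxic solvent mixture with surfactant. After 13 to 15 days in a greenhouse, injury was rated visually against untreated controls, 0 (no effect) to 100 (complete control).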

kochia (Kochia scoparia) = conditions: for Kochia plant response rating: postemergence, 0-100 scale; for Plant response rating, Kochia: Postemergence
Method in brief: as §1

[1] = test system: surinam grass (Brachiaria decumbens); conditions: for pest or weed control at 31 g/ha / pest or weed control at 62 g/ha: Urochloa decumbens, read-out: Plant response rating, Surinam Grass; for pest or weed control at 31 g/ha: 31 g ai/ha; for pest or weed control at 62 g/ha: 62 g ai/ha, 100 complete control
Method in brief: as §1

[2] = test system: morningglory (Ipomoea coccinea); conditions: for pest or weed control at 31 g/ha / pest or weed control at 62 g/ha: Ipomoea, read-out: Plant response rating, Morningglory; for pest or weed control at 31 g/ha: 31 g ai/ha; for pest or weed control at 62 g/ha: 62 g ai/ha, 100 complete control
Method in brief: as §1

[3] = test system: green foxtail (Setaria viridis); conditions: for pest or weed control at 31 g/ha: 31 g ai/ha; for pest or weed control at 62 g/ha: 62 g ai/ha, 100 complete control
Method in brief: as §1

[4] = test system: downy bromegrass (Bromus tectorum); conditions: for pest or weed control at 31 g/ha: 31 g ai/ha; for pest or weed control at 62 g/ha: 62 g ai/ha, 100 complete control
Method in brief: as §1

[5] = test system: bermudagrass (Cynodon dactylon); conditions: for pest or weed control at 31 g/ha: 31 g ai/ha; for pest or weed control at 62 g/ha: 62 g ai/ha, 100 complete control
Method in brief: as §1

[6] = test system: Russian thistle (Salsola iberica); conditions: Preemergence; for Russian Thistle plant response rating: scale 0 to 100
Method in brief: as §1

[7] = 8 g ai/ha, postemergence, 0-100 scale
[8] = 16 g ai/ha, postemergence, 0-100 scale
[9] = Preemergence, 8 g ai/ha, scale 0 to 100
[10] = Preemergence, 16 g ai/ha, scale 0 to 100
[11] = post-emergence, Postemergence, scale 0 to 100
[12] = post-emergence, Postemergence, scale 0 to 100, 0 no effect
[13] = pre-emergence, Preemergence, scale 0 to 100 (0 no effect, 100 complete control)
[14] = pre-emergence, Preemergence, 0 to 100 scale, 0 no effect

**Q.** How did the plant injury at 62 g/ha (soybean (Glycine max); Glycine max, pre-emergence, 62 g ai/ha, 0 to 100 scale, 0 no effect, 100 complete control, read-out: Plant response rating, Soybean) turn out when Cc1nn(C)c(=O)c(-n2nc(-c3ccc(C(F)(F)F)cc3)cc2C)c1O [Compound 75, 5-hydroxy-2,6-dimethyl-4-[5-methyl-3-[4-(trifluoromethyl)phenyl]-1H-pyrazol-1-yl]-3(2H)-pyridazinone] was run?
**A.** The plant injury at 62 g/ha was 0%.

**Q.** What about the “Soybean plant response rating” value (soybean (Glycine max); 8 g ai/ha) of the same molecule?
**A.** Its value is 0.

**Q.** What about the “Soybean plant response rating” value (soybean (Glycine max); 16 g ai/ha) of the same molecule?
**A.** Its value is 0.

**Q.** And the “Kochia plant response rating” value (kochia (Kochia scoparia); 8 g ai/ha)?
**A.** The value was 0.

**Q.** What about the “Kochia plant response rating” value (kochia (Kochia scoparia); 16 g ai/ha) of the same molecule?
**A.** The value was 0.

**Q.** And the “Plant response rating, Kochia” value (kochia (Kochia scoparia); 31 g ai/ha, scale 0 to 100)?
**A.** Its value is 0.

**Q.** What about the “Plant response rating, Kochia” value (kochia (Kochia scoparia); 62 g ai/ha, scale 0 to 100, 0 no effect, 100 complete control) of the same molecule?
**A.** The value was 0.

**Q.** And the “Surinam Grass plant response rating” value [1, 7]?
**A.** Its value is 60.

**Q.** And the “Surinam Grass plant response rating” value [1, 8]?
**A.** The value was 70.

**Q.** What about the “Surinam Grass plant response rating” value [1, 9] of the same molecule?
**A.** The value was 45.

**Q.** What about the “Surinam Grass plant response rating” value [1, 10] of the same molecule?
**A.** Its value is 50.

**Q.** And the pest or weed control at 31 g/ha [1, 11]?
**A.** Its pest or weed control at 31 g/ha is 75%.

**Q.** What about the pest or weed control at 62 g/ha [1, 12] of the same molecule?
**A.** The pest or weed control at 62 g/ha was 85%.

**Q.** What about the pest or weed control at 31 g/ha [1, 13] of the same molecule?
**A.** The pest or weed control at 31 g/ha was 80%.

**Q.** What about the pest or weed control at 62 g/ha [1, 14] of the same molecule?
**A.** The pest or weed control at 62 g/ha was 98%.

**Q.** What about the “Morningglory plant response rating” value [2, 7] of the same molecule?
**A.** The value was 0.

**Q.** What about the “Morningglory plant response rating” value [2, 8] of the same molecule?
**A.** Its value is 0.

**Q.** And the pest or weed control at 31 g/ha [2, 11]?
**A.** The pest or weed control at 31 g/ha was 0%.

**Q.** What about the pest or weed control at 62 g/ha [2, 12] of the same molecule?
**A.** Its pest or weed control at 62 g/ha is 0%.

**Q.** And the pest or weed control at 31 g/ha [2, 13]?
**A.** Its pest or weed control at 31 g/ha is 0%.

**Q.** And the pest or weed control at 62 g/ha [2, 14]?
**A.** The pest or weed control at 62 g/ha was 0%.

**Q.** What about the “Morningglory plant response rating” value [2, 9] of the same molecule?
**A.** The value was 0.

**Q.** What about the “Morningglory plant response rating” value [2, 10] of the same molecule?
**A.** The value was 0.

**Q.** What about the “Foxtail, Green plant response rating” value [3, 7] of the same molecule?
**A.** The value was 0.

**Q.** What about the “Foxtail, Green plant response rating” value [3, 9] of the same molecule?
**A.** The value was 0.

**Q.** What about the “Foxtail, Green plant response rating” value [3, 10] of the same molecule?
**A.** The value was 30.

**Q.** And the pest or weed control at 16 g/ha ([3]; Setaria viridis, post-emergence, Postemergence, 16 g ai/ha, scale 0 to 100, read-out: Plant response rating, Foxtail, Green)?
**A.** Its pest or weed control at 16 g/ha is 40%.

**Q.** What about the pest or weed control at 31 g/ha ([3]; Setaria viridis, post-emergence, Postemergence, scale 0 to 100, read-out: Plant response rating, Foxtail, Green) of the same molecule?
**A.** Its pest or weed control at 31 g/ha is 80%.

**Q.** And the pest or weed control at 62 g/ha ([3]; Setaria viridis, post-emergence, Postemergence, scale 0 to 100, 0 no effect, read-out: Plant response rating, Foxtail, Green)?
**A.** Its pest or weed control at 62 g/ha is 95%.

**Q.** What about the pest or weed control at 31 g/ha ([3]; Setaria viridis, pre-emergence, Preemergence, scale 0 to 100 (0 no effect, 100 complete control), read-out: Plant response rating, Foxtail, Green) of the same molecule?
**A.** The pest or weed control at 31 g/ha was 50%.

**Q.** And the pest or weed control at 62 g/ha ([3]; Setaria viridis, pre-emergence, Preemergence, 0 to 100 scale, 0 no effect, read-out: Plant response rating, Foxtail, Green)?
**A.** Its pest or weed control at 62 g/ha is 80%.

**Q.** What about the “Bromegrass, Downy plant response rating” value [4, 7] of the same molecule?
**A.** Its value is 0.

**Q.** What about the pest or weed control at 16 g/ha ([4]; Bromus tectorum, post-emergence, Postemergence, 16 g ai/ha, scale 0 to 100, read-out: Plant response rating, Bromegrass, Downy) of the same molecule?
**A.** The pest or weed control at 16 g/ha was 10%.

**Q.** What about the pest or weed control at 31 g/ha ([4]; Bromus tectorum, post-emergence, Postemergence, scale 0 to 100, read-out: Plant response rating, Bromegrass, Downy) of the same molecule?
**A.** The pest or weed control at 31 g/ha was 30%.

**Q.** What about the pest or weed control at 62 g/ha ([4]; Bromus tectorum, post-emergence, Postemergence, scale 0 to 100, 0 no effect, read-out: Plant response rating, Bromegrass, Downy) of the same molecule?
**A.** Its pest or weed control at 62 g/ha is 50%.

**Q.** What about the pest or weed control at 31 g/ha ([4]; Bromus tectorum, pre-emergence, Preemergence, scale 0 to 100 (0 no effect, 100 complete control), read-out: Plant response rating, Bromegrass, Downy) of the same molecule?
**A.** The pest or weed control at 31 g/ha was 50%.

**Q.** And the pest or weed control at 62 g/ha ([4]; Bromus tectorum, pre-emergence, Preemergence, 0 to 100 scale, 0 no effect, read-out: Plant response rating, Bromegrass, Downy)?
**A.** The pest or weed control at 62 g/ha was 80%.

**Q.** What about the “Bromegrass, Downy plant response rating” value [4, 9] of the same molecule?
**A.** The value was 0.

**Q.** What about the “Bromegrass, Downy plant response rating” value [4, 10] of the same molecule?
**A.** Its value is 20.

**Q.** And the “Bermudagrass plant response rating” value [5, 7]?
**A.** The value was 65.

**Q.** What about the pest or weed control at 16 g/ha ([5]; Cynodon dactylon, post-emergence, Postemergence, 16 g ai/ha, scale 0 to 100, read-out: Plant response rating, Bermudagrass) of the same molecule?
**A.** Its pest or weed control at 16 g/ha is 80%.

**Q.** And the pest or weed control at 31 g/ha ([5]; Cynodon dactylon, post-emergence, Postemergence, scale 0 to 100, read-out: Plant response rating, Bermudagrass)?
**A.** Its pest or weed control at 31 g/ha is 85%.

**Q.** And the pest or weed control at 62 g/ha ([5]; Cynodon dactylon, post-emergence, Postemergence, scale 0 to 100, 0 no effect, read-out: Plant response rating, Bermudagrass)?
**A.** The pest or weed control at 62 g/ha was 90%.

**Q.** What about the pest or weed control at 31 g/ha ([5]; Cynodon dactylon, pre-emergence, Preemergence, scale 0 to 100 (0 no effect, 100 complete control), read-out: Plant response rating, Bermudagrass) of the same molecule?
**A.** Its pest or weed control at 31 g/ha is 65%.

**Q.** And the pest or weed control at 62 g/ha ([5]; Cynodon dactylon, pre-emergence, Preemergence, 0 to 100 scale, 0 no effect, read-out: Plant response rating, Bermudagrass)?
**A.** Its pest or weed control at 62 g/ha is 98%.

**Q.** What about the “Bermudagrass plant response rating” value ([5]; Preemergence, 16 g ai/ha, scale 0 to 100 (0 no effect, 100 complete control)) of the same molecule?
**A.** The value was 0.

**Q.** What about the “Plant response rating, Russian Thistle” value ([6]; 31 g ai/ha, scale 0 to 100 (0 no effect, 100 complete control)) of the same molecule?
**A.** The value was 0.

**Q.** And the “Plant response rating, Russian Thistle” value ([6]; 62 g ai/ha, 0 to 100 scale, 0 no effect, 100 complete control)?
**A.** Its value is 0.

**Q.** What about the “Russian Thistle plant response rating” value ([6]; 8 g ai/ha) of the same molecule?
**A.** Its value is 0.

**Q.** And the “Russian Thistle plant response rating” value ([6]; 16 g ai/ha)?
**A.** Its value is 0.
